Laboratory results as given in patent publication US20240158412A1 (Faxian Therapeutics, LLC, priority 2021, published 2024).
pIC50: −log10 of the molar value.

Molecular target: USP7 (Homo sapiens, UniProt Q93009)
Assay: biochemical
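Note: fluorescence intensity readout of USP7 enzymatic activity, reaction incubated 90 min at room temperature.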

Sequence of USP7 (Q93009 whole entry): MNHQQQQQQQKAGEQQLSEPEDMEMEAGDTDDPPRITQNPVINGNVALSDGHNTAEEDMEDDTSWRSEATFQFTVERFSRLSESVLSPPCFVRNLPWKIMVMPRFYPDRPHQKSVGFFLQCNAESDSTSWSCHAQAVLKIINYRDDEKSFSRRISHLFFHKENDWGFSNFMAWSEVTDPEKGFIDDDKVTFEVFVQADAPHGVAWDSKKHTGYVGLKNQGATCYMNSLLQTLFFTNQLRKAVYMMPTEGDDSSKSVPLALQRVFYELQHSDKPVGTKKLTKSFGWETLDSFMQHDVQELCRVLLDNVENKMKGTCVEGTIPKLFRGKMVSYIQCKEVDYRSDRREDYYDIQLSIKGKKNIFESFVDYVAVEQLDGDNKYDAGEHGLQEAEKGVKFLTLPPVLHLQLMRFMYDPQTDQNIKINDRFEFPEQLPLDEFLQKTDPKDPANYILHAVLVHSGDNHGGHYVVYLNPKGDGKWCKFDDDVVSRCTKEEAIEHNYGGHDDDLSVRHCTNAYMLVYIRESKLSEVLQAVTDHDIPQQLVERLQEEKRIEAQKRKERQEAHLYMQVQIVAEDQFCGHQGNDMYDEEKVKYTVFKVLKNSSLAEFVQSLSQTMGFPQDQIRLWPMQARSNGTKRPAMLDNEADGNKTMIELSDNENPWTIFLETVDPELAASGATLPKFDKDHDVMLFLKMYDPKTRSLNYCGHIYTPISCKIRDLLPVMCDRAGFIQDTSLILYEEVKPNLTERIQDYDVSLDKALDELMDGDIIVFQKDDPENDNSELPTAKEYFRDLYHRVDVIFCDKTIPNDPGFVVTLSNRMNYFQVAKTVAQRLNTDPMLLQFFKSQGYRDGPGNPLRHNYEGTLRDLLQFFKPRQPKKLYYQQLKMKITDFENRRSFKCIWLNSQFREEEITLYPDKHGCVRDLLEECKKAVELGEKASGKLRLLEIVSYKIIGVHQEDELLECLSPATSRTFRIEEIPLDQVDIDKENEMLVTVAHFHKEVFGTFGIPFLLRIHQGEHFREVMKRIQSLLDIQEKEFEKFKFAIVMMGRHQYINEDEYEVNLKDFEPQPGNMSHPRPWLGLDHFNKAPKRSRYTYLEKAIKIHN

pIC50 | SMILES
6.00 to 7.00 | CC1(C)CC(N2CCOc3cc(C#N)cc(-c4ccnc5cc(Cn6c(=O)ccn(CC(F)(F)F)c6=O)sc45)c32)CN1 (single isomer, unassigned) [Example 133b]
6.00 to 7.00 | O=c1ccn(C2CC2)c(=O)n1Cc1cc2nccc(-c3cc(C(F)(F)F)cc4c3N(C3CNC5(CCC5)C3)CCC4)c2s1 (single isomer, unassigned) [Example 162b]
> 8.00 | O=C1CCC(=O)N1Cc1cc2nccc(-c3cc(Cl)cc4c3N(C3CNC5(CC(F)C5)C3)CCC4)c2s1 (single isomer, unassigned) [Example 177a]
6.00 to 7.00 | O=C1CCC(=O)N1Cc1cc2nccc(-c3cc(Cl)cc4c3N([C@@H]3CN(C[C@@H](O)C(F)(F)F)C5(CCC5)C3)CCC4)c2s1 (single isomer, unassigned) [Example 143b]
7.00 to 8.00 | CC1(C)C[C@@H](N2CCCc3cc(Cl)cc(-c4ccnc5cc(Cn6c(=O)ccn(CC(F)(F)F)c6=O)sc45)c32)CN1 (single isomer, unassigned) [Example 118a]
6.00 to 7.00 | O=C1CCC(=O)N1Cc1cc2nccc(-c3cc(Cl)cc4c3N([C@@H]3CCNC3)CC3CC43)c2s1 (single isomer, unassigned) [Example 113a]
> 8.00 | O=C1CCC(=O)N1Cc1cc2nccc(-c3cc(Cl)cc4c3N([C@@H]3CCCNCC3)CCC4)c2s1 (single isomer, unassigned) [Example 47b]
< 6.00 | C[C@@H](c1cc2nccc(-c3cc(C#N)cc4c3N([C@@H]3CCNC3)CCC4)c2s1)N1C(=O)CCC1=O (single isomer, unassigned) [Example 112d]
> 8.00 | N#Cc1cc2c(c(-c3ccnc4cc(Cn5c(=O)ccn(CC(F)(F)F)c5=O)sc34)c1)N([C@H]1CCN([C@@H]3CC[C@H]3O)C1)CCC2 (single isomer, unassigned) [Example 107a]
> 8.00 | O=C1CCC(=O)N1Cc1sc2c(-c3cc(Cl)cc4c3N(C3CCNC3)CCC4)ccnc2c1F (single isomer, unassigned) [Example 108a]

The next lines start with the compound.

SMILES | pIC50
CC(C)(C)c1cnn(Cc2cc3nccc(-c4cc(C#N)cc5c4N([C@@H]4CN[C@@H](CO)C4)CCO5)c3s2)c(=O)c1 [Example 217, 5-(2-((4-(tert-butyl)-6-oxopyridazin-1(6H)-yl)methyl)thieno[3,2-b]pyridin-7-yl)-4-((3S,5R)-5-(hydroxymethyl)pyrrolidin-3-yl)-3,4-dihydro-2H-benzo[b][1,4]oxazine-7-carbonitrile] | > 8.00
C[C@]1(CO)C[C@H](N2CCCc3cc(Cl)cc(-c4cc[n+]([O-])c5cc(CN6C(=O)CCC6=O)sc45)c32)CN1 [Example 208, 7-(6-chloro-1-((3S,5R)-5-(hydroxymethyl)-5-methylpyrrolidin-3-yl)-1,2,3,4-tetrahydroquinolin-8-yl)-2-((2,5-dioxopyrrolidin-1-yl)methyl)thieno[3,2-b]pyridine 4-oxide] | > 8.00
Cn1ccc(=O)n(Cc2cc3nccc(-c4cc(C#N)cc5c4N(C4CNC(C)(C)C4)CCC5)c3s2)c1=O (stereo in doubt) [Example 121, (S)-1-(5,5-dimethylpyrrolidin-3-yl)-8-(2-((3-methyl-2,6-dioxo-3,6-dihydropyrimidin-1(2H)-yl)methyl)thieno[3,2-b]pyridin-7-yl)-1,2,3,4-tetrahydroquinoline-6-carbonitrile] | > 8.00
O=C1CCC(=O)N1Cc1cc2nccc(-c3cc(C(F)(F)F)cc4c3N(C3CNC3)CCC4)c2s1 [Example 39] | 7.00 to 8.00
Cc1ccnn(Cc2cc3nccc(-c4cc(Cl)cc5c4N(C4CNC4)CCC5)c3s2)c1=O [Example 18, 2-[[7-[1-(azetidin-3-yl)-6-chloro-3,4-dihydro-2H-quinolin-8-yl]thieno[3,2-b]pyridin-2-yl]methyl]-4-methyl-pyridazin-3-one] | 7.00 to 8.00
O=c1c2ccccc2cnn1Cc1cc2nccc(-c3cc(Cl)cc4c3N(C3CNC3)CCC4)c2s1 [Example 21, 2-[[7-[1-(azetidin-3-yl)-6-chloro-3,4-dihydro-2H-quinolin-8-yl]thieno[3,2-b]pyridin-2-yl]methyl]phthalazin-1-one] | 6.00 to 7.00
O=C1CCC(=O)N1Cc1cc2nccc(-c3cc(Cl)cc4c3N(C3CNC3)C[C@@H]3C[C@H]43)c2s1 (single isomer, unassigned) [Example 43a] | < 6.00
Cc1cc2c(c(-c3ccnc4cc(CN5C(=O)CCC5=O)sc34)c1)N(C1CNC1)CCC2 [Example 33, 1-[[7-[1-(azetidin-3-yl)-6-methyl-3,4-dihydro-2H-quinolin-8-yl]thieno[3,2-b]pyridin-2-yl]methyl]pyrrolidine-2,5-dione] | 7.00 to 8.00
O=C1CN(C2CC(F)(F)C2)C(=O)N1Cc1cc2nccc(-c3cc(Cl)cc4c3N([C@@H]3CNC5(CCC5)C3)CCC4)c2s1 [Example 159, (S)-3-((7-(6-chloro-1-(5-azaspiro[3.4]octan-7-yl)-1,2,3,4-tetrahydroquinolin-8-yl)thieno[3,2-b]pyridin-2-yl)methyl)-1-(3,3-difluorocyclobutyl)imidazolidine-2,4-dione] | > 8.00
O=C1CCC(=O)N1Cc1cc2nccc(-c3cc(Cl)cc4c3N(C3CC5(CNC5)C3)CCC4)c2s1 [Example 137, 1-[[7-[1-(2-azaspiro[3.3]heptan-6-yl)-6-chloro-3,4-dihydro-2H-quinolin-8-yl]thieno[3,2-b]pyridin-2-yl]methyl]pyrrolidine-2,5-dione] | 7.00 to 8.00
CC1(C)C[C@H](N2CCCc3cc(C#N)cc(-c4ccnc5cc(CN6C(=O)CN(C7CC7)C6=O)sc45)c32)CN1 [Example 131, (S)-8-(2-((3-cyclopropyl-2,5-dioxoimidazolidin-1-yl)methyl)thieno[3,2-b]pyridin-7-yl)-1-(5,5-dimethylpyrrolidin-3-yl)-1,2,3,4-tetrahydroquinoline-6-carbonitrile] | > 8.00
O=c1ccn(CC(F)(F)F)c(=O)n1Cc1cc2nccc(-c3cc(Cl)cc4c3N([C@H]3CCNC3)CCC4)c2s1 [Example 55, (S)-3-((7-(6-chloro-1-(pyrrolidin-3-yl)-1,2,3,4-tetrahydroquinolin-8-yl)thieno[3,2-b]pyridin-2-yl)methyl)-1-(2,2,2-trifluoroethyl)pyrimidine-2,4(1H,3H)-dione] | > 8.00
O=C1CCC(=O)N1Cc1cc2nccc(-c3cc(Cl)cc4c3N([C@@H]3CCNC3)CCC4)c2s1 [Example 58, (R)-1-((7-(6-chloro-1-(pyrrolidin-3-yl)-1,2,3,4-tetrahydroquinolin-8-yl)thieno[3,2-b]pyridin-2-yl)methyl)pyrrolidine-2,5-dione] | 7.00 to 8.00
Cn1ccnc(Cc2cc3nccc(-c4cc(Cl)cc5c4N([C@@H]4CNC6(CCC6)C4)CCC5)c3s2)c1=O (stereo in doubt) [Example 160, 3-((7-(6-chloro-1-(5-azaspiro[3.4]octan-7-yl)-1,2,3,4-tetrahydroquinolin-8-yl)thieno[3,2-b]pyridin-2-yl)methyl)-1-methylpyrazin-2(1H)-one] | 6.00 to 7.00
CC1(CN2CC(=O)N(Cc3cc4nccc(-c5cc(Cl)cc6c5N(C5CNC5)CCC6)c4s3)C(=O)C2)CC1 [Example 29, 1-((7-(1-(azetidin-3-yl)-6-chloro-1,2,3,4-tetrahydroquinolin-8-yl)thieno[3,2-b]pyridin-2-yl)methyl)-4-((1-methylcyclopropyl)methyl)piperazine-2,6-dione] | 7.00 to 8.00
O=C1COC(=O)N1Cc1cc2nccc(-c3cc(Cl)cc4c3N([C@H]3CCNC3)CCC4)c2s1 [Example 73, (S)-3-((7-(6-chloro-1-(pyrrolidin-3-yl)-1,2,3,4-tetrahydroquinolin-8-yl)thieno[3,2-b]pyridin-2-yl)methyl)oxazolidine-2,4-dione] | > 8.00
O=C1C2CC2C(=O)N1Cc1cc2nccc(-c3cc(Cl)cc4c3N([C@@H]3CN[C@@H](CO)C3)CCC4)c2s1 (stereo partly drawn) [Example 185, 3-((7-(6-chloro-1-((3S,5R)-5-(hydroxymethyl)pyrrolidin-3-yl)-1,2,3,4-tetrahydroquinolin-8-yl)thieno[3,2-b]pyridin-2-yl)methyl)-3-azabicyclo[3.1.0]hexane-2,4-dione] | > 8.00
N#Cc1cc(-c2ccnc3cc(Cn4c(=O)ccn(CC(F)(F)F)c4=O)sc23)c2c(c1)[C@@H]1C[C@@H]1CN2[C@@H]1CNC2(CCC2)C1 [Example 169, (1aS,7bR)-4-(2-((2,6-dioxo-3-(2,2,2-trifluoroethyl)-3,6-dihydropyrimidin-1(2H)-yl)methyl)thieno[3,2-b]pyridin-7-yl)-3-((S)-5-azaspiro[3.4]octan-7-yl)-1a,2,3,7b-tetrahydro-1H-cyclopropa[c]quinoline-6-carbonitrile] | > 8.00
N#Cc1cc2c(c(-c3ccnc4cc(Cn5c(=O)ccn(CC(F)(F)F)c5=O)sc34)c1)N([C@H]1CCNC1)CCC2 [Example 83, (S)-8-(2-((2,6-dioxo-3-(2,2,2-trifluoroethyl)-2,3-dihydropyrimidin-1(6H)-yl)methyl)thieno[3,2-b]pyridin-7-yl)-1-(pyrrolidin-3-yl)-1,2,3,4-tetrahydroquinoline-6-carbonitrile] | > 8.00
C[C@]1(CO)C[C@H](N2C(=O)COc3cc(C#N)cc(-c4ccnc5cc(Cn6ncc(C7(C(F)(F)F)CC7)cc6=O)sc45)c32)CN1 [Example 226, 4-[(3S,5R)-5-(hydroxymethyl)-5-methyl-pyrrolidin-3-yl]-3-oxo-5-[2-[[6-oxo-4-[1-(trifluoromethyl)cyclopropyl]pyridazin-1-yl]methyl]thieno[3,2-b]pyridin-7-yl]-1,4-benzoxazine-7-carbonitrile] | > 8.00
O=C1CCC(=O)N1Cc1cc2nccc(-c3cc(Cl)cc4c3N(C3CNC3)C(=O)CO4)c2s1 [Example 53, 1-[[7-[4-(azetidin-3-yl)-7-chloro-3-oxo-1,4-benzoxazin-5-yl]thieno[3,2-b]pyridin-2-yl]methyl]pyrrolidine-2,5-dione] | 7.00 to 8.00
O=c1cc2n(c(=O)n1Cc1cc3nccc(-c4cc(Cl)cc5c4N([C@H]4CCNC4)CCC5)c3s1)CCC2 [Example 106, (S)-2-((7-(6-chloro-1-(pyrrolidin-3-yl)-1,2,3,4-tetrahydroquinolin-8-yl)thieno[3,2-b]pyridin-2-yl)methyl)-6,7-dihydropyrrolo[1,2-c]pyrimidine-1,3(2H,5H)-dione] | > 8.00
O=c1ccn(CC(F)F)c(=O)n1Cc1cc2nccc(-c3cc(C(F)(F)F)cc4c3N([C@@H]3CCNC3)CCC4)c2s1 (single isomer, unassigned) [Example 80] | 7.00 to 8.00
